This assay deals with T1, hr‐granzyme B (Homo sapiens, UniProt P10144).
T1 construct: in the absence and presence of active human recombinant (hr)‐granzyme B
Kind of assay: Time-course signal-to-noise ratios after reaction with granzyme B. In kind it is biochemical. Conditions: Ac-IEPD-AMC 25 μM, hr-granzyme B 20 nM, aqueous buffer 37 °C, fluorescence 450 nm, over 30 minutes; mean ± SEM, n=6. The procedure: In vitro characterisation assays. Enzymatic assays were run in a 384-well format in a PCR opaque microplate (Thermo Scientific). All experiments were performed at least in triplicate. Dilutions and reactions using human GZM B and human neutrophil elastase were prepared in 50 mM Tris-HCl and 100 mM NaCl (pH 7.4). GZM A assays were performed in 25 mM HEPES, 0.1% CHAPS and 10 mM DTT (pH 7.5). Dilutions and incubations with CASP8 and CASP9 were prepared in 50 mM HEPES, 100 mM NaCl, 0.1% Triton X-100, 10 mM DTT, 1 mM EDTA and 10% glycerol (pH 7.4). Any other tested biomolecules were prepared in PBS. Proteolytic activity was determined by calculating the fold change in chemiluminescence signal (or fluorescence signal in the case of Ac - IEPD-AMC) over background signal provided by the corresponding dilution of the probes with the enzyme using a spectrophotometer (Synergy H1 Hybrid Reader, BioTek) at 37°C.
Unless otherwise stated, probes were utilized at a concentration of 100 μM. Enzyme concentration used: 20 nM (except CASP9, which was used at 200 nM) and all other biomolecules were tested at 100 μM. In the case where an inhibitor was used, the enzyme was pre-incubated for 1 h with the inhibitor (100 µM) before addition of probe 1.
Cell culture. […]

Where a SMILES comes first, the peptide text is derived from it. The star is where a group is joined. AMC = Cc1cc(=O)oc2cc(N*)ccc12

T1 sequence (P10144 21-247): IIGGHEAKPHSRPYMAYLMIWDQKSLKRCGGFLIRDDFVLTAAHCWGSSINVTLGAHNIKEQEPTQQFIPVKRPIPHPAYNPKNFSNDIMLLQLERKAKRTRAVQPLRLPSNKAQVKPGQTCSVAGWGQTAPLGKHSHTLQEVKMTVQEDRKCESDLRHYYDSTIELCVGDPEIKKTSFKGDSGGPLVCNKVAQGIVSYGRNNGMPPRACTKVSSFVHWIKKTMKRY

In the case of `CC[C@H](C)[C@H](NC(C)=O)C(=O)N[C@@H](CCC(=O)O)C(=O)N1CCC[C@H]1C(=O)N[C@@H](CC(=O)O)C(=O)Nc1ccc2c(C)cc(=O)oc2c1` [Ac‐IEPD‐AMC] (Ac-IEPD-{AMC}), the “Signal‐to‐noise (S/N) ratio” value is reported as “under 5”.

The values above are taken from paper PMC7986153, “A Functional Chemiluminescent Probe for in Vivo Imaging of Natural Killer Cell Activity Against Tumours” (Angewandte Chemie (International Ed. in English), 2021).
